Here are results for 25 compounds from patent US20180155344A1, “TRICYCLIC PIPERIDINE COMPOUNDS” (ACTELION PHARMACEUTICALS LTD, priority 2015, published 2018).

The target of the experiment is T1, human TPH1 (Homo sapiens, UniProt P17752).
T1 sequence (P17752 1-444): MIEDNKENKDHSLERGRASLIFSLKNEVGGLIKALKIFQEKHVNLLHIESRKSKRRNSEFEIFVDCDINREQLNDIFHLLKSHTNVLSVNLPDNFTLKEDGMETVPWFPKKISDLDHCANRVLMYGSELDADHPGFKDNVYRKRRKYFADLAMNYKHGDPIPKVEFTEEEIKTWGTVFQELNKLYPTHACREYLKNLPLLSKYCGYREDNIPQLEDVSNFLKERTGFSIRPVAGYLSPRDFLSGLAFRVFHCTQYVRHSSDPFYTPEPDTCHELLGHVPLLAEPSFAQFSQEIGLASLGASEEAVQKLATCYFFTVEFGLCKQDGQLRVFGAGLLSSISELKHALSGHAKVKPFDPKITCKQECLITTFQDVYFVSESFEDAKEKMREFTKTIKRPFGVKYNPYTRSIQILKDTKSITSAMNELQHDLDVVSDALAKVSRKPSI
The experiment can be described thus: biochemical. The method, boiled down: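 Inhibition is derived from 5-hydroxy-L-tryptophan fluorescence (540 nm emission, 300 nm excitation) after perchloric acid stop, relative to DMSO vehicle. Recombinant full-length human enzyme (40-80 nM) reacts with 40 μM tryptophan plus 100 μM methyltetrahydropterin, pH 7.6 Tris/DTT/catalase, 15° C, 60 min.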
The term IC50 denotes the midpoint of a concentration-inhibition curve. Compound `COc1cc(F)c(C2c3c(nc4cc(C(F)(F)F)ccn34)CCN2C(=O)COc2ccc3c(c2)CN(C)CC3)cc1OC` (stereo not shown) [Example 3.18.5, 1-(1-(2-fluoro-4,5-dimethoxyphenyl)-7-(trifluoromethyl)-3,4-dihydroimidazo[1,2-a:5,4-c′]dipyridin-2(1H)-yl)-2-((2-methyl-1,2,3,4-tetrahydroisoquinolin-7-yl)oxy)ethan-1-one] gave an IC50 of 0.013 µM.
With `Cc1ccc(C2c3c(nc4cc(C(F)(F)F)ccn34)CCN2C(=O)COc2cccnc2Cl)c(F)c1` (stereo not shown) [Example 3.22.2, 2-((2-chloropyridin-3-yl)oxy)-1-(1-(2-fluoro-4-methylphenyl)-7-(trifluoromethyl)-3,4-dihydroimidazo[1,2-a:5,4-c′]dipyridin-2(1H)-yl)ethan-1-one] the figure was 0.044 µM; with `COc1cc(F)c(C2c3c(nc4cc(C(F)(F)F)ccn34)CCN2C(=O)COc2ccc3c(c2)CNCC3)cc1OC` (stereo not shown) [Example 3.18.4, 1-(1-(2-fluoro-4,5-dimethoxyphenyl)-7-(trifluoromethyl)-3,4-dihydroimidazo[1,2-a:5,4-c′]dipyridin-2(1H)-yl)-2-((1,2,3,4-tetrahydroisoquinolin-7-yl)oxy)ethan-1-one], 0.072 µM.
With `COc1ccc(C2c3c(nc4cc(Cl)ccn34)CCN2C(=O)COc2ccc(N3CCOCC3)cc2Cl)cc1OC` (stereo not shown) [Example 2.1.7, 1-(7-chloro-1-(3,4-dimethoxyphenyl)-3,4-dihydroimidazo[1,2-a:5,4-c′]dipyridin-2(1H)-yl)-2-(2-chloro-4-morpholinophenoxy)ethan-1-one] the figure was 0.034 µM.
For `Cc1nc(C)c(C2c3c(nc4cc(C(F)(F)F)ccn34)CCN2C(=O)COc2ccc(-c3ncco3)nc2Cl)s1` (stereo not shown) [Example 3.59.1, 2-((2-chloro-6-(oxazol-2-yl)pyridin-3-yl)oxy)-1-(1-(2,4-dimethylthiazol-5-yl)-7-(trifluoromethyl)-3,4-dihydroimidazo[1,2-a:5,4-c′]dipyridin-2(1H)-yl)ethan-1-one], it took 0.022 µM to reach half-maximal inhibition (IC50).
On to `COc1ccc(C2c3c(nc4ccccn34)CCN2C(=O)COc2ccc(CN3CCOCC3)nc2Cl)c(F)c1` (stereo not shown) [Example 1.3.1, 2-((2-chloro-6-(morpholinomethyl)pyridin-3-yl)oxy)-1-(1-(2-fluoro-4-methoxyphenyl)-3,4-dihydroimidazo[1,2-a:5,4-c′]dipyridin-2(1H)-yl)ethan-1-one], for which the IC50 is 0.084 µM.
Regarding `CCc1nc(C)ccc1OCC(=O)N1CCc2nc3ccccn3c2C1c1ccc(Cl)nc1F` (stereo not shown) [Example 1.11.3, 1-(1-(6-chloro-2-fluoropyridin-3-yl)-3,4-dihydroimidazo[1,2-a:5,4-c′]dipyridin-2(1H)-yl)-2-((2-ethyl-6-methylpyridin-3-yl)oxy)ethan-1-one], it took 0.241 µM to reach half-maximal inhibition (IC50). This IC50 lies about 2.9-fold higher than the previous one.
The figure for `COc1ccc(C2c3c(nc4ccccn34)CCN2C(=O)COc2ccc(NS(C)(=O)=O)nc2Cl)c(F)c1` (stereo not shown) [Example 1.3.2, N-(6-chloro-5-(2-(1-(2-fluoro-4-methoxyphenyl)-3,4-dihydroimidazo[1,2-a:5,4-c′]dipyridin-2(1H)-yl)-2-oxoethoxy)pyridin-2-yl)methanesulfonamide] is 0.04 µM.
With `CCc1ncc(C2c3c(nc4cc(C(F)(F)F)ccn34)CCN2C(=O)COc2ccc(CN3CCOCC3)cc2Cl)cn1` (stereo not shown) [Example 3.54.2, 2-(2-chloro-4-(morpholinomethyl)phenoxy)-1-(1-(2-ethylpyrimidin-5-yl)-7-(trifluoromethyl)-3,4-dihydroimidazo[1,2-a:5,4-c′]dipyridin-2(1H)-yl)ethan-1-one] the figure was 0.415 µM; with `COc1ccc(C2c3c(nc4cc(C(F)(F)F)ccn34)CCN2C(=O)COc2ccc(CN3CCOCC3)cc2Cl)nc1` (stereo not shown) [Example 3.52.2, 2-(2-chloro-4-(morpholinomethyl)phenoxy)-1-(1-(5-methoxypyridin-2-yl)-7-(trifluoromethyl)-3,4-dihydroimidazo[1,2-a:5,4-c′]dipyridin-2(1H)-yl)ethan-1-one], 0.074 µM; with `CCc1ccccc1OCC(=O)N1CCc2nc3cc(C(F)(F)F)ccn3c2C1c1ccc(OC)c(OC)c1` (stereo not shown) [Example 3.1.28], 0.118 µM.
The figure for `CCOc1ccc(C2c3c(nc4cc(C(F)(F)F)ccn34)CCN2C(=O)COc2ccc(CN3CCOCC3)cc2Cl)cc1` (stereo not shown) [Example 3.25.2, 2-(2-chloro-4-(morpholinomethyl)phenoxy)-1-(1-(4-ethoxyphenyl)-7-(trifluoromethyl)-3,4-dihydroimidazo[1,2-a:5,4-c′]dipyridin-2(1H)-yl)ethan-1-one] is 0.02 µM; for `COc1ccc(C2c3c(nc4ccc(C)cn34)CCN2C(=O)COc2ccc(Cl)cc2Cl)cc1OC` (stereo not shown) [Example 7.1.1, 2-(2,4-dichlorophenoxy)-1-(1-(3,4-dimethoxyphenyl)-8-methyl-3,4-dihydroimidazo[1,2-a:5,4-c′]dipyridin-2(1H)-yl)ethan-1-one] it is 0.089 µM; for `O=C(COc1ccc(CN2CCOCC2)cc1Cl)N1CCc2nc3cc(C(F)(F)F)ccn3c2C1c1ccccc1F` (stereo not shown) [Example 3.35.2, 2-(2-chloro-4-(morpholinomethyl)phenoxy)-1-(1-(2-fluorophenyl)-7-(trifluoromethyl)-3,4-dihydroimidazo[1,2-a:5,4-c′]dipyridin-2(1H)-yl)ethan-1-one] it is 0.016 µM.
In turn, `O=C(COc1ccc2ccccc2c1)N1CCc2nc3cc(C(F)(F)F)ccn3c2C1c1nc2ccccc2s1` (stereo not shown) [Example 3.44.1, 1-(1-(benzo[d]thiazol-2-yl)-7-(trifluoromethyl)-3,4-dihydroimidazo[1,2-a:5,4-c′]dipyridin-2(1H)-yl)-2-(naphthalen-2-yloxy)ethan-1-one] registered a 50% inhibitory concentration (IC50) of 0.076 µM.
In turn, `O=C(COc1ccc2ccccc2c1)N1CCc2nc3cc(C(F)(F)F)ccn3c2C1c1cnn(-c2ccccc2)c1` (stereo not shown) [Example 3.41.1, 2-(naphthalen-2-yloxy)-1-(1-(1-phenyl-1H-pyrazol-4-yl)-7-(trifluoromethyl)-3,4-dihydroimidazo[1,2-a:5,4-c′]dipyridin-2(1H)-yl)ethan-1-one] showed an IC50 of 0.328 µM.
The figure for `CCc1cc(N2CCOCC2)ccc1OCC(=O)N1CCc2nc3cc(C(F)(F)F)ccn3c2C1c1ccc(OC)c(OC)c1` (stereo not shown) [Example 3.1.33, 1-(1-(3,4-dimethoxyphenyl)-7-(trifluoromethyl)-3,4-dihydroimidazo[1,2-a:5,4-c′]dipyridin-2(1H)-yl)-2-(2-ethyl-4-morpholinophenoxy)ethan-1-one] is 0.012 µM; for `COc1ncc(C2c3c(nc4cc(C(F)(F)F)ccn34)CCN2C(=O)COc2ccc(CN3CCOCC3)cc2Cl)cn1` (stereo not shown) [Example 3.55.2, 2-(2-chloro-4-(morpholinomethyl)phenoxy)-1-(1-(2-methoxypyrimidin-5-yl)-7-(trifluoromethyl)-3,4-dihydroimidazo[1,2-a:5,4-c′]dipyridin-2(1H)-yl)ethan-1-one] it is 0.266 µM; for `COc1ccc(C2c3c(nc4ccccn34)CCN2C(=O)COc2ccc(Cl)cc2Cl)cc1OC` (stereo not shown) [Example 1.1.4, 2-(2,4-dichlorophenoxy)-1-(1-(3,4-dimethoxyphenyl)-3,4-dihydroimidazo[1,2-a:5,4-c′]dipyridin-2(1H)-yl)ethan-1-one] it is 0.069 µM.
Turning to `COc1cc(F)c(C2c3c(nc4cc(C(F)(F)F)ccn34)CCN2C(=O)COc2ccc(C3(N)COC3)cc2Cl)cc1OC` (stereo not shown) [Example 3.18.9, 2-(4-(3-aminooxetan-3-yl)-2-chlorophenoxy)-1-(1-(2-fluoro-4,5-dimethoxyphenyl)-7-(trifluoromethyl)-3,4-dihydroimidazo[1,2-a:5,4-c′]dipyridin-2(1H)-yl)ethan-1-one], the IC50 was 0.01 µM.
The figure for `Cc1ccc(OCC(=O)N2CCc3nc4cc(C(F)(F)F)ccn4c3C2c2cccnc2F)cc1` (stereo not shown) [Example 3.2.3, 1-(1-(2-fluoropyridin-3-yl)-7-(trifluoromethyl)-3,4-dihydroimidazo[1,2-a:5,4-c′]dipyridin-2(1H)-yl)-2-(p-tolyloxy)ethan-1-one] is 0.251 µM; for `COc1ccc(C2c3c(nc4cc(C(F)(F)F)ccn34)CCN2C(=O)COc2ccc(CN3CCOCC3)cc2Cl)cn1` (stereo not shown) [Example 3.6.2, 2-(2-chloro-4-(morpholinomethyl)phenoxy)-1-(1-(6-methoxypyridin-3-yl)-7-(trifluoromethyl)-3,4-dihydroimidazo[1,2-a:5,4-c′]dipyridin-2(1H)-yl)ethan-1-one] it is 0.05 µM.
Compound `COc1ccc(C2c3c(nc4cc(C(F)(F)F)ccn34)CCN2C(=O)COc2cccnc2Cl)cc1OC` (stereo not shown) [Example 3.1.15, 2-((2-chloropyridin-3-yl)oxy)-1-(1-(3,4-dimethoxyphenyl)-7-(trifluoromethyl)-3,4-dihydroimidazo[1,2-a:5,4-c′]dipyridin-2(1H)-yl)ethan-1-one] showed an IC50 of 0.067 µM.
In turn, `COc1ccc(C2c3c(nc4cc(Cl)ccn34)CCN2C(=O)COc2ccc3ccccc3c2)cc1OC[C@@H](O)CO` (stereo partly drawn) [Example 2.9.1, 1-(7-chloro-1-(3-((S)-2,3-dihydroxypropoxy)-4-methoxyphenyl)-3,4-dihydroimidazo[1,2-a:5,4-c′]dipyridin-2(1H)-yl)-2-(naphthalen-2-yloxy)ethan-1-one] showed an IC50 of 0.03 µM.
With `CN(C)Cc1csc(C2c3c(nc4ccccn34)CCN2C(=O)COc2ccc(N3CCOCC3)nc2Cl)c1` (stereo not shown) [Example 1.7.1, 2-((2-chloro-6-morpholinopyridin-3-yl)oxy)-1-(1-(4-((dimethylamino)methyl)thiophen-2-yl)-3,4-dihydroimidazo[1,2-a:5,4-c′]dipyridin-2(1H)-yl)ethan-1-one] the figure was 0.101 µM.
